Assay results: DBAASP
Converted amounts (≈) assume the structure as drawn.

What was measured:
Test in all cases: ≥ marks a high value that may be exact or a test limit, other limits are often not marked, values filed in µg/mL are converted to µM
[1] = system: Bacillus subtilis ATCC 6633
[2] = system: Escherichia coli ATCC 25922
[3] = system: Klebsiella pneumoniae ATCC 10031
[4] = system: Micrococcus luteus ATCC 10240
[5] = system: Pseudomonas aeruginosa ATCC 27853
[6] = system: Salmonella enterica subsp. enterica serovar Typhimurium ATCC 14028
[7] = system: Shigella dysenteriae ATCC 9752
[8] = system: Staphylococcus aureus ATCC 6538P
[9] = system: Staphylococcus aureus TK784
[10] = system: Staphylococcus epidermidis ATCC 12228
[11] = system: Enterobacter cloacae 218R
[12] = system: Enterococcus faecalis ATCC 29212
[13] = system: Enterococcus faecalis W61950
[14] = system: Enterococcus faecalis f43559
[15] = system: Enterococcus faecium mic80
[16] = system: Enterococcus faecium t62764
[17] = system: Escherichia coli ESBL 63103
[18] = system: Escherichia coli ESBL 64771
[19] = system: Klebsiella pneumoniae ESBL 61962
[20] = system: Klebsiella pneumoniae ESBL 63575
[21] = system: Pseudomonas aeruginosa 198
[22] = system: Pseudomonas aeruginosa 213
Pseudomonas aeruginosa 9 = system: Pseudomonas aeruginosa 9
[23] = system: Pseudomonas aeruginosa H1027
[24] = system: Pseudomonas aeruginosa H1030
[25] = system: Pseudomonas aeruginosa LES400
[26] = system: Pseudomonas aeruginosa PAO1 H103
[27] = system: Staphylococcus aureus ATCC 25923
[28] = system: Staphylococcus aureus C623
[29] = system: Stenotrophomonas maltophilia ATCC 13637
[30] = system: Bacillus subtilis ATCC 62037
[31] = system: Candida albicans ATCC 10231
[32] = system: Cryptococcus neoformans ATCC 34881
[33] = system: Escherichia coli ATCC 27325
[34] = system: Pseudomonas putida ATCC 17426
[35] = system: Saccharomyces cerevisiae ATCC 44774
[36] = system: Salmonella enterica subsp. enterica serovar Enteritidis ATCC 13076
[37] = system: Staphylococcus aureus ATCC 15752
[38] = system: Streptococcus mutans ATCC 25175

For `CC(C)C[C@H](NC(=O)[C@H](Cc1c[nH]c2ccccc12)NC(=O)[C@H](CCCCN)NC(=O)[C@H](CC(C)C)NC(=O)[C@H](CC(C)C)NC(=O)[C@H](CCCCN)NC(=O)[C@H](CCCCN)NC(=O)[C@H](CC(C)C)NC(=O)[C@H](CC(C)C)NC(=O)[C@@H](N)CCCCN)C(=O)N[C@@H](CCCCN)C(N)=O` [KLLKKLLKWLK], which MIC [1] is on record?
Its MIC is 1.42 µM (≈ 2 µg/mL).

What about the MIC [2] of the same compound?
Its MIC is 1.42 µM (≈ 2 µg/mL).

And the MIC [3]?
Its MIC is 1.42 µM (≈ 2 µg/mL).

What about the MIC [4] of the same compound?
The MIC was 2.84 µM (≈ 4 µg/mL).

What about the MIC [5] of the same compound?
Its MIC is 2.84 µM (≈ 4 µg/mL).

And the MIC [6]?
Its MIC is 1.42 µM (≈ 2 µg/mL).

And the MIC [7]?
The MIC was 1.42 µM (≈ 2 µg/mL).

What about the MIC [8] of the same compound?
The MIC was 1.42 µM (≈ 2 µg/mL).

What about the MIC [9] of the same compound?
Its MIC is 5.67 µM (≈ 7.99 µg/mL).

And the MIC [10]?
Its MIC is 1.42 µM (≈ 2 µg/mL).

For `CC[C@H](C)[C@H](NC(=O)[C@H](CCCN=C(N)N)NC(=O)[C@H](CCCCN)NC(=O)[C@@H](NC(=O)[C@H](Cc1c[nH]c2ccccc12)NC(=O)[C@H](Cc1c[nH]c2ccccc12)NC(=O)[C@H](Cc1c[nH]c2ccccc12)NC(=O)[C@H](CCCN=C(N)N)NC(=O)[C@@H](N)CC(C)C)[C@@H](C)CC)C(=O)O` [LRWWWIKRI], which MIC [11] is on record?
The MIC was 27.3 µM (≈ 37 µg/mL).

And the MIC [12]?
Its MIC is 7.08 µM (≈ 9.6 µg/mL).

And the MIC [13]?
The MIC was 27.3 µM (≈ 37 µg/mL).

And the MIC [14]?
Its MIC is 13.3 µM (≈ 18 µg/mL).

And the MIC [15]?
The MIC was 3.39 µM (≈ 4.6 µg/mL).

And the MIC [16]?
Its MIC is 0.811 µM (≈ 1.1 µg/mL).

What about the MIC [17] of the same compound?
Its MIC is 13.3 µM (≈ 18 µg/mL).

What about the MIC [18] of the same compound?
Its MIC is 7.08 µM (≈ 9.6 µg/mL).

And the MIC [19]?
The MIC was ≥ 109 µM.

What about the MIC [20] of the same compound?
The MIC was 27.3 µM (≈ 37 µg/mL).

What about the MIC [21] of the same compound?
Its MIC is 13.3 µM (≈ 18 µg/mL).

What about the MIC [22] of the same compound?
Its MIC is 27.3 µM (≈ 37 µg/mL).

What about the MIC (Pseudomonas aeruginosa 9) of the same compound?
The MIC was 27.3 µM (≈ 37 µg/mL).

What about the MIC [23] of the same compound?
Its MIC is 3.39 µM (≈ 4.6 µg/mL).

What about the MIC [24] of the same compound?
Its MIC is 13.3 µM (≈ 18 µg/mL).

What about the MIC [25] of the same compound?
The MIC was 13.3 µM (≈ 18 µg/mL).

What about the MIC [26] of the same compound?
The MIC was 7.08 µM (≈ 9.6 µg/mL).

And the MIC [27]?
Its MIC is 3.39 µM (≈ 4.6 µg/mL).

And the MIC [28]?
The MIC was 3.39 µM (≈ 4.6 µg/mL).

What about the MIC [29] of the same compound?
Its MIC is 1.77 µM (≈ 2.4 µg/mL).

How did the MIC [30] turn out when `CC[C@H](C)[C@H](NC(=O)[C@@H]1CCCN1C(=O)[C@H](Cc1c[nH]c2ccccc12)NC(=O)[C@H](CCC(N)=O)NC(=O)[C@H](CC(C)C)NC(=O)CNC(=O)[C@H](C)NC(=O)[C@@H](N)CCCN=C(N)N)C(=O)NCC(=O)N[C@@H](CCCN=C(N)N)C(=O)N[C@@H](CC(C)C)C(=O)N[C@@H](CC(C)C)C(=O)N[C@@H](CCCN=C(N)N)C(=O)N[C@@H](CCCN=C(N)N)C(=O)N[C@@H](CC(C)C)C(=O)N[C@@H](CC(C)C)C(=O)N[C@@H](CCCN=C(N)N)C(=O)N[C@@H](CCCN=C(N)N)C(=O)N[C@@H](CC(C)C)C(=O)N[C@@H](CC(C)C)C(=O)N[C@@H](CCCN=C(N)N)C(=O)O` [RAGLQWPIGRLLRRLLRRLLR] was run?
Its MIC is 0.765 µM (≈ 2 µg/mL).

What about the MIC [31] of the same compound?
The MIC was 0.765 µM (≈ 2 µg/mL).

And the MIC [32]?
Its MIC is 0.383 µM (≈ 1 µg/mL).

And the MIC [33]?
The MIC was 0.383 µM (≈ 1 µg/mL).

What about the MIC [34] of the same compound?
Its MIC is 0.765 µM (≈ 2 µg/mL).

What about the MIC [35] of the same compound?
The MIC was 0.765 µM (≈ 2 µg/mL).

What about the MIC [36] of the same compound?
The MIC was 0.765 µM (≈ 2 µg/mL).

What about the MIC [37] of the same compound?
Its MIC is 0.383 µM (≈ 1 µg/mL).

And the MIC [38]?
The MIC was 0.765 µM (≈ 2 µg/mL).
